This assay has as its target T1, human Werner helicase (WRN-BV08, Uniprot Q14191, amino acids 517-1235 with L1074F point mutation) (Homo sapiens, UniProt Q14191, L1074F).
T1 construct: Uniprot Q14191, amino acids 517-1235 with L1074F point mutation; TEV-cleavable 8×His (C, cleaved yes); made in house; host or cells: Sf9 insect cells (baculovirus)
The assay can be described thus: WRN (BV08) ADP-Glo Assay. The assay is classed as biochemical. Particulars: 0.15 nM WRN, 5 μM ATP, 0.1 nM DNA duplex, 15 min preincubation, 60 min at 25° C., pH 7.5, 1% DMSO; read-out: ADP-Glo_hWRN_IC50. In short, it runs like this:
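ADP produced by WRN helicase fragment 517-1235 (L1074F, baculovirus/Sf9, untagged) read by ADP-Glo luminescence after 60 min at 25 °C with 5 μM ATP and 0.1 nM duplex DNA, following 15 min compound preincubation. Final enzyme 0.15 nM in Bicine pH 7.5 buffer, 1% DMSO; 20 μM NSC-617145 defined full inhibition.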
(In ADP-Glo the light output rises with the ADP produced.)
T1 sequence (Q14191 with tags, fused parts or gaps L1074F limits assumed): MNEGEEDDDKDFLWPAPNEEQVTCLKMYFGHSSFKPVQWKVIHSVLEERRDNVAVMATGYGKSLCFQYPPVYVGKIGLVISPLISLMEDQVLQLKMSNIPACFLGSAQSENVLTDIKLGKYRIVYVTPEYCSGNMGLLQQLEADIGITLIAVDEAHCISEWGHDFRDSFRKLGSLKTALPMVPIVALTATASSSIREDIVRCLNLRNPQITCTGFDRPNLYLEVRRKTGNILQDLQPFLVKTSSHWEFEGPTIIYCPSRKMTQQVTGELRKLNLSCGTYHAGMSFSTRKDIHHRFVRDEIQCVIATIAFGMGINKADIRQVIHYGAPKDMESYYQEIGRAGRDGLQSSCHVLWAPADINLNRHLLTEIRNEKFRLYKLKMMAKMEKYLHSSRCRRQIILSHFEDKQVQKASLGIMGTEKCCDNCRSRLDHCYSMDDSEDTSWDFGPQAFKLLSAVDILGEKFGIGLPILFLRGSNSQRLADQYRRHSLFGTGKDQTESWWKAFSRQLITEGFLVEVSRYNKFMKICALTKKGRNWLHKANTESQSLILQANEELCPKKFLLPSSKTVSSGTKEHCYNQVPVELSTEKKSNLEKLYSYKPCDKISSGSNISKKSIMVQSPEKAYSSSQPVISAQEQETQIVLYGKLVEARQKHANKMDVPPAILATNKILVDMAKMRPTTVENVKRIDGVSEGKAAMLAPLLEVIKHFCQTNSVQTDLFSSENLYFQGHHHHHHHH
As to `COc1cc(CN(C(=O)Cc2cnn(-c3ccc(Cl)cc3)c2)C2C=CS(=O)(=O)C2)ccn1` (centres unmarked) [I-379, 2-[1-(4-chlorophenyl)-1H-pyrazol-4-yl]-N-(1,1-dioxo-2,3-dihydro-1lambda6-thiophen-3-yl)-N-[(2-methoxypyridin-4-yl)methyl]acetamide], the IC50 is greater than 50 µM.

As to `O=C(CCc1[nH]nc2ccccc12)N(Cc1ccncc1)C1C=CS(=O)(=O)C1` (centres unmarked) [I-413, N-(1,1-dioxo-2,3-dihydro-1lambda6-thiophen-3-yl)-3-(2H-indazol-3-yl)-N-[(pyridin-4-yl)methyl]propanamide], the IC50 was greater than 50 µM. With `COc1cc(CN(C(=O)C2Cc3cc(-n4cccc4C)ccc32)C2C=CS(=O)(=O)C2)ccn1` (centres unmarked) [I-132, N-(1,1-dioxo-2,3-dihydro-1lambda6-thiophen-3-yl)-N-[(2-methoxypyridin-4-yl)methyl]-3-(2-methyl-1H-pyrrol-1-yl)bicyclo[4.2.0]octa-1,3,5-triene-7-carboxamide], the IC50 was in the range of 0.5 to 5 µM. Next, `O=C(Cn1cc(-c2ccc(F)c(F)c2)cn1)N(Cc1nc(C2CC2)cs1)C1C=CS(=O)(=O)C1` (centres unmarked) [I-599, N-[(4-cyclopropyl-1,3-thiazol-2-yl)methyl]-2-[4-(3,4-difluorophenyl)-1H-pyrazol-1-yl]-N-(1,1-dioxo-2,3-dihydro-1lambda6-thiophen-3-yl)acetamide]: less than 0.5 µM; `N#CC1=CC(N(Cc2ccccc2)C(=O)Cc2ccc(-c3ccc(F)cc3)cc2)CS1(=O)=O` (centres unmarked) [I-728, N-benzyl-N-(5-cyano-1,1-dioxo-2,3-dihydro-1lambda6-thiophen-3-yl)-2-{4′-fluoro-[1,1′-biphenyl]-4-yl}acetamide]: 0.5 to 5 µM. Take `O=C(Cc1ccc(S(F)(F)(F)(F)F)cc1)N(Cc1nc(-c2nn[nH]n2)cs1)C1C=CS(=O)(=O)C1` (centres unmarked) [I-626, N-(1,1-dioxo-2,3-dihydro-1lambda6-thiophen-3-yl)-2-[4-(pentafluoro-lambda6-sulfanyl)phenyl]-N-{[4-(2H-1,2,3,4-tetrazol-5-yl)-1,3-thiazol-2-yl]methyl}acetamide]: the IC50 was less than 0.5 µM. Next, `O=C(Cc1ccc(-n2cccc2)cc1F)N(Cc1ccncc1)C1C=CS(=O)(=O)C1` (single isomer, unassigned) [I-520]: greater than 50 µM. `O=C(Cc1ccc(-n2cccc2)cc1)N(Cc1nc2c(s1)COCC2)C1C=CS(=O)(=O)C1` (centres unmarked) [I-178, N-(1,1-dioxo-2,3-dihydro-1lambda6-thiophen-3-yl)-N-({4H,6H,7H-pyrano[4,3-d][1,3]thiazol-2-yl}methyl)-2-[4-(1H-pyrrol-1-yl)phenyl]acetamide]: the IC50 lay within 0.5 to 5 µM. Next, `CC(C)(O)c1cc(CN(C(=O)Cc2cc(-c3ccc(F)c(F)c3)n[nH]2)C2C=CS(=O)(=O)C2)ccn1` (single isomer, unassigned) [I-781]: 10 to 50 µM. Consider `O=C(Cc1ccc(-n2cccc2)cc1)N(Cc1ccncc1Cl)C1C=CS(=O)(=O)C1` (centres unmarked) [I-228, N-[(3-chloropyridin-4-yl)methyl]-N-(1,1-dioxo-2,3-dihydro-1lambda6-thiophen-3-yl)-2-[4-(1H-pyrrol-1-yl)phenyl]acetamide], for which the IC50 lay in the range of 5 to 10 µM. Regarding `COc1ccc(C(F)(F)C(=O)N(Cc2ccncc2)C2C=CS(=O)(=O)C2)cc1` (centres unmarked) [I-649, N-(1,1-dioxo-2,3-dihydro-1lambda6-thiophen-3-yl)-2,2-difluoro-2-(4-methoxyphenyl)-N-[(pyridin-4-yl)methyl]acetamide], the IC50 was greater than 50 µM. Under `O=C(CCc1nc2cc(Cl)ccc2s1)N(Cc1ccncc1)C1C=CS(=O)(=O)C1` (centres unmarked) [I-391, 3-(5-chloro-1,3-benzothiazol-2-yl)-N-(1,1-dioxo-2,3-dihydro-1lambda6-thiophen-3-yl)-N-[(pyridin-4-yl)methyl]propanamide] stands greater than 50 µM; under `COc1cc(CN(C(=O)C2Cc3cc(-c4ccc(F)cc4)ccc32)C2C=CS(=O)(=O)C2)ccn1` (centres unmarked) [I-176, N-(1,1-dioxo-2,3-dihydro-1lambda6-thiophen-3-yl)-3-(4-fluorophenyl)-N-[(2-methoxypyridin-4-yl)methyl]bicyclo[4.2.0]octa-1,3,5-triene-7-carboxamide], 0.5 to 5 µM; under `Cc1cccn1-c1ccc(CC(=O)N(Cc2ccnc(N(C)C)c2)C2C=CS(=O)(=O)C2)c(F)c1` (centres unmarked) [I-96, N-{[2-(dimethylamino)pyridin-4-yl]methyl}-N-(1,1-dioxo-2,3-dihydro-1lambda6-thiophen-3-yl)-2-[2-fluoro-4-(2-methyl-1H-pyrrol-1-yl)phenyl]acetamide], 0.5 to 5 µM.

On to `O=C(Cc1ccc(-c2cccs2)cc1)N(Cc1ccncc1)C1C=CS(=O)(=O)C1` (centres unmarked) [I-338, N-(1,1-dioxo-2,3-dihydro-1lambda6-thiophen-3-yl)-N-[(pyridin-4-yl)methyl]-2-[4-(thiophen-2-yl)phenyl]acetamide], for which the IC50 was 10 to 50 µM.

Regarding `O=C(Cn1cc(-c2ccc(F)c(F)c2)cn1)N(Cc1ccnc(N2CCNCC2)c1)C1C=CS(=O)(=O)C1` (centres unmarked) [I-787, 2-[4-(3,4-difluorophenyl)-1H-pyrazol-1-yl]-N-(1,1-dioxo-2,3-dihydro-1lambda6-thiophen-3-yl)-N-{[2-(piperazin-1-yl)pyridin-4-yl]methyl}acetamide], the IC50 was 0.5 to 5 µM. On to `COc1cc(CN(C(=O)Cc2ccc(S(F)(F)(F)(F)F)cc2F)C2C=CS(=O)(=O)C2)ccn1` (centres unmarked) [I-22, N-(1,1-dioxido-2,3-dihydrothiophen-3-yl)-2-(2-fluoro-4-(pentafluoro-λ^6-sulfaneyl)phenyl)-N-((2-methoxypyridin-4-yl)methyl)acetamide], for which the IC50 is less than 0.5 µM. Regarding `O=C(Nc1ccc(CC(=O)N(Cc2ccncc2)C2C=CS(=O)(=O)C2)cc1)C1CC1` (centres unmarked) [I-448, N-(4-{[(1,1-dioxo-2,3-dihydro-1lambda6-thiophen-3-yl)[(pyridin-4-yl)methyl]carbamoyl]methyl}phenyl)cyclopropanecarboxamide], the IC50 was greater than 50 µM. Next, `COc1cc(CN(C(=O)Cc2ccc(-n3cccc3)cc2)C2C=CS(=O)(=O)C2)ccn1` (centres unmarked) [I-156, N-(1,1-dioxo-2,3-dihydro-1lambda6-thiophen-3-yl)-N-[(2-methoxypyridin-4-yl)methyl]-2-[4-(1H-pyrrol-1-yl)phenyl]acetamide]: 0.5 to 5 µM.

As to `CC1=CC(N(Cc2ccccc2)C(=O)Cc2ccc(-n3cccc3)cc2)CS1(=O)=O` (centres unmarked) [I-566, 2-(4-(1H-pyrrol-1-yl)phenyl)-N-benzyl-N-(5-methyl-1,1-dioxido-2,3-dihydrothiophen-3-yl)acetamide], the IC50 is greater than 50 µM. Next, `COc1cc(CN(C(=O)C(OCc2cnn(C)c2)c2ccc(-c3ccc(F)c(F)c3)cc2F)[C@@H]2C=CS(=O)(=O)C2)ccn1` (single isomer, unassigned) [I-743, (2R*)-N-[(3R)-1,1-dioxo-2,3-dihydro-1lambda6-thiophen-3-yl]-N-[(2-methoxypyridin-4-yl)methyl]-2-[(1-methyl-1H-pyrazol-4-yl)methoxy]-2-{3,3′,4′-trifluoro-[1,1′-biphenyl]-4-yl}acetamide]: greater than 50 µM; `CC(C)(O)c1cc(CN(C(=O)Cn2cc(-c3ccccc3F)cn2)C2C=CS(=O)(=O)C2)ccn1` (centres unmarked) [I-108, N-(1,1-dioxo-2,3-dihydro-1lambda6-thiophen-3-yl)-2-[4-(2-fluorophenyl)-1H-pyrazol-1-yl]-N-{[2-(2-hydroxypropan-2-yl)pyridin-4-yl]methyl}acetamide]: 0.5 to 5 µM; `O=C(Cc1ccc(-n2cccc2)cc1)N(Cc1cccc(F)c1)C1C=CS(=O)(=O)C1` (centres unmarked) [I-270, N-(1,1-dioxo-2,3-dihydro-1lambda6-thiophen-3-yl)-N-[(3-fluorophenyl)methyl]-2-[4-(1H-pyrrol-1-yl)phenyl]acetamide]: 5 to 10 µM. Turning to `O=C(Cn1cc2cc(C(F)(F)F)ccc2n1)N(Cc1ccncc1)C1C=CS(=O)(=O)C1` (centres unmarked) [I-589, N-(1,1-dioxo-2,3-dihydro-1lambda6-thiophen-3-yl)-N-[(pyridin-4-yl)methyl]-2-[5-(trifluoromethyl)-2H-indazol-2-yl]acetamide], the IC50 is 0.5 to 5 µM.

For `CC(C)(O)c1cc(CN(C(=O)Cn2cc(-c3cc(F)c(F)cc3F)cn2)C2C=CS(=O)(=O)C2)ccn1` (single isomer, unassigned) [I-763], the IC50 was less than 0.5 µM.

As to `COc1cc(CN(C(=O)C(OC)c2ccc(-c3ccc(F)cc3)cc2)C2C=CS(=O)(=O)C2)ccn1` (centres unmarked) [I-86, N-(1,1-dioxo-2,3-dihydro-1lambda6-thiophen-3-yl)-2-{4′-fluoro-[1,1′-biphenyl]-4-yl}-2-methoxy-N-[(2-methoxypyridin-4-yl)methyl]acetamide], the IC50 fell in the range of 0.5 to 5 µM.

For `O=C(Cc1ccc(-c2cccc(F)c2)cc1F)N(Cc1ccncc1)C1C=CS(=O)(=O)C1` (centres unmarked) [I-120, 2-{3,3′-difluoro-[1,1′-biphenyl]-4-yl}-N-(1,1-dioxo-2,3-dihydro-1lambda6-thiophen-3-yl)-N-[(pyridin-4-yl)methyl]acetamide], the IC50 is 0.5 to 5 µM. For the compound `COc1cc(CN(C(=O)Cn2nc3ccc(C(F)(F)F)cc3c2C)[C@@H]2C=CS(=O)(=O)C2)ccn1` [I-766, N-[(3R)-1,1-dioxo-2,3-dihydro-1lambda6-thiophen-3-yl]-N-[(2-methoxypyridin-4-yl)methyl]-2-[3-methyl-5-(trifluoromethyl)-2H-indazol-2-yl]acetamide], the IC50 was in the range of 5 to 10 µM.

Regarding `O=C(O)c1ccc(CN(C(=O)Cc2ccc(-n3cccc3)cc2F)C2C=CS(=O)(=O)C2)cc1` (centres unmarked) [I-185, 4-{[N-(1,1-dioxo-2,3-dihydro-1lambda6-thiophen-3-yl)-2-[2-fluoro-4-(1H-pyrrol-1-yl)phenyl]acetamido]methyl}benzoic acid], the IC50 was in the range of 0.5 to 5 µM.
